# Experimental data as given in patent US20220396794A1, “APTAMERS AGAINST TRANSFERRIN RECEPTOR (TfR)” (APTERNA LIMITED, priority 2019, published 2022).
# Experiments:
# [1] = test system: PANC-Luc tumors; assay: Liver-metastatic pancreatic cancer mouse model, combinational treatment with gemcitabine; assay type: in vivo, NOD/SCID mice; conditions: gemcitabine alone 50 mg/kg 2 times/week I.V., compared to vehicle-treated control
# Method: Intrahepatic pancreatic cancer liver-metastatic mouse model. To create an animal model harboring traceable tumors, a firefly luciferase fragment was inserted into the pLKO.1-AS3 backbone encoding the neo gene (National RNAi Core, Academia Sinica, Taiwan). One day before transduction, 293T cells were plated onto a 6-well plate. On the day of transduction, the medium was replaced with DMEM containing serial dilutions of the transfer plasmids and incubated for 5 h, then the medium was replaced. After two days, the culture medium containing recombinant lentiviral particles was obtained. PANC-1 cells were incubated with recombinant lentiviral particles for 24 h. […] Luciferase expression was assessed using the Luciferase Assay System. […] For the combinational treatment with gemcitabine, tumors were allowed to grow for 2 weeks after inoculation until they could be detected using an IVIS system, then mice were randomly divided into five groups of 10 animals/group. […] Tumor growth was monitored by evaluating bioluminescence using an IVIS 200 in vivo imaging platform (Caliper Life Sciences, Alameda, Calif.) and measuring the difference from before the first injection and one day after the last injection. […] The mice were imaged using the IVIS 200 and bioluminescent signals were analyzed using Living Image Software (Caliper Life Sciences, Alameda, Calif.). […]
# [2] = molecular target: T1, hTfR1 (extracellular domain of hTfR, His6-tagged) (Homo sapiens, UniProt P02786); assay: Surface plasmon resonance-based biosensor assay (Biacore T100), aptamer-hTfR binding affinity and kinetics; conditions: for binding affinity and kinetics for hTfR1 (Biacore sensorgram), in words: compared with parent TR14; for ka (1/Ms), measured association rate / kd (1/s), measured disassociation rate / Kd: Biacore T100, biotinylated aptamer on streptavidin chip, hTfR1 protein injected, 1:1 binding with mass transfer; for Kd: read-out: K^D (M), equilibrium dissociation constant
# T1 construct: (NP_003225.2) (Cys 89-Phe 760); His6 (N); purchased Sino Biological Inc 11020-H07H; host or cells: HEK293
# Source text: Recombinant target protein. hTfR was purchased from Sino Biological Inc (11020-H07H, Beijing, P.R. China). The extracellular domain of hTfR (NP_003225.2) (Cys 89-Phe 760) was expressed with a His6-tag at the N-terminus in human cells (HEK293).
# Surface plasmon resonance-based biosensor assay. The Biacore T100 (GE Healthcare, Uppsala, Sweden) was used to monitor label-free interactions of truncated TR14-hTfR1 in real time. The biotinylated aptamer was coupled to a streptavidin-coated Biacore chip (SensorChip SA, BR-1003-98, General Electric Company) by an injection in binding buffer at a concentration of 25 μg/mL (30 mM Tris-HCl, pH 7.5; 150 mM NaCl; 5 mM MgCl2) at 10 uL/min. The RNA was refolded by heating to 65° C., followed by cooling to 37° C., before immobilization. To measure binding kinetics, five concentrations of purified hTfR1 protein were injected at a flow rate of 10 uL/min. After binding, the surface was regenerated by injecting 50 mM NaOH at a flow rate of 15 μL/min for 20 s. Data from the control surface were subtracted. BIAevaluation software (GE Healthcare) was used for analysis. The binding data was fit to a 1:1 binding with a mass transfer model to calculate kinetics parameters as previously described (Hernandez et al, 2009; Soontornworajit et al, 2011)
# [3] = molecular target: T2, TfR1 (Homo sapiens, UniProt P02786); assay: Cross-reactivity by live cell confocal imaging, U87MG cells (express TfR1, not TfR2); assay type: cell-based; conditions: Cy3-labelled aptamer, U87MG cells (TfR1 only)
# T2 construct: The U87MG cells only express TfR1, not TfR2; endogenous in cells; host or cells: U87MG (U-87 MG, ATCC HTB-14)
# Method: (§1) Cell line. HepG2 (Hepatocarcinoma, HB-8065) and PANC-1 (Pancreatic epithelioid carcinoma, CRL-1469), U-87 MG (Glioblastoma, HTB-14) were purchased from the American Type Culture Collection (ATCC, Manassas, Va.). The cells were cultured according to the suppliers' instructions. TB10 human glioma cell line was obtained from Vittorio de Franciscis lab in Italy. The cells were cultured according to the suppliers' instructions.
# (§2) To determine the potential cross-reactivity of the parent TR14, S2 (43-nt) and ST1-3 (22-nt) truncates, we tested chemically synthesized parent TR14, TR14-[…] or TR14-ST1-3 aptamer labelled with Cy3 on live cells imaging by confocal microscopy. To test this, we choose two glioblastoma cell lines (U87MG and TB10) that are selectively expressed of TfR1 or TfR2. The U87MG cells only express TfR1, not TfR2. In contrast, TB10 expresses TfR2, not TfR1.
# [4] = molecular target: T3, TfR2 (Homo sapiens, UniProt Q9UP52); assay: Cross-reactivity by live cell confocal imaging, TB10 cells (express TfR2, not TfR1); assay type: cell-based; conditions: Cy3-labelled aptamer, TB10 cells (TfR2 only)
# T3 construct: In contrast, TB10 expresses TfR2, not TfR1; endogenous in cells; host or cells: TB10 human glioma cells
# T3 sequence (Q9UP52 1-801): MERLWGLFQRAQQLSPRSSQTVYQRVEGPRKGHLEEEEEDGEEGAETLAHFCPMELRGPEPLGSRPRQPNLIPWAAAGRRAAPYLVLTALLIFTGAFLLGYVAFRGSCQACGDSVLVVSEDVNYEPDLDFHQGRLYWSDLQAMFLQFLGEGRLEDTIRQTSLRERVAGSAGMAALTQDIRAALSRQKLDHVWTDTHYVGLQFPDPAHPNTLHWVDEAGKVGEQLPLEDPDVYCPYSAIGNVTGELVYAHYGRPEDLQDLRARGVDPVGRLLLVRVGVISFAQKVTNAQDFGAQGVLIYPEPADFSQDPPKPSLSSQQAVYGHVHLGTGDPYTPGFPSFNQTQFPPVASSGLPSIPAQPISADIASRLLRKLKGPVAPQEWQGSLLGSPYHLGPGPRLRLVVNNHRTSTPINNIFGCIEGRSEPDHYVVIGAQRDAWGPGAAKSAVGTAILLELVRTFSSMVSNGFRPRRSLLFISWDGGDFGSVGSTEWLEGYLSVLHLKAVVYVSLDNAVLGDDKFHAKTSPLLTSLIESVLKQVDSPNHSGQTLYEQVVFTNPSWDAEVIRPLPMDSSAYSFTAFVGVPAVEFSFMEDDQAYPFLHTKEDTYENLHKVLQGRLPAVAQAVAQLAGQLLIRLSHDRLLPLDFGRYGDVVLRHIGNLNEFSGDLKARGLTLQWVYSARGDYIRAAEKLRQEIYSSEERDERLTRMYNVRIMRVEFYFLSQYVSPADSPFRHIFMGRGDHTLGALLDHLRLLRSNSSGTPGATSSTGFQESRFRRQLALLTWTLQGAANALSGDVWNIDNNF
# Method: as §1, §2
# T1 sequence (P02786 89-760): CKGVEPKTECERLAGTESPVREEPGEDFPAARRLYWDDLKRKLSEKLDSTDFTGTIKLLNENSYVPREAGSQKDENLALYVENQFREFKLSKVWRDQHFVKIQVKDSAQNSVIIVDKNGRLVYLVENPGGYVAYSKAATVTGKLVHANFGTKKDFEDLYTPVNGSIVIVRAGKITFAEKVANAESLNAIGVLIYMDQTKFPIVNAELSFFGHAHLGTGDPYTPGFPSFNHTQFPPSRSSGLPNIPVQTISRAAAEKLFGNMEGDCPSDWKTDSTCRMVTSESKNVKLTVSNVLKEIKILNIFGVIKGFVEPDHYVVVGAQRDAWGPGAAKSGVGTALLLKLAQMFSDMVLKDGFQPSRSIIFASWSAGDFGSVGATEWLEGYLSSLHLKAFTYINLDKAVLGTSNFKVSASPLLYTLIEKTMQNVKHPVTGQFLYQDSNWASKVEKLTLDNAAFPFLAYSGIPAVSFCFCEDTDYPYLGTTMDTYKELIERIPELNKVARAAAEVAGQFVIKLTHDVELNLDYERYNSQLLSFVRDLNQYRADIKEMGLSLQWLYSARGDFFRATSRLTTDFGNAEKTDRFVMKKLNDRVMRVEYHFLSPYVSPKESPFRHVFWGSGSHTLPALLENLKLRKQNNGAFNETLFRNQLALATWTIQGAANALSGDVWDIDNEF
# T2 sequence (P02786 whole entry): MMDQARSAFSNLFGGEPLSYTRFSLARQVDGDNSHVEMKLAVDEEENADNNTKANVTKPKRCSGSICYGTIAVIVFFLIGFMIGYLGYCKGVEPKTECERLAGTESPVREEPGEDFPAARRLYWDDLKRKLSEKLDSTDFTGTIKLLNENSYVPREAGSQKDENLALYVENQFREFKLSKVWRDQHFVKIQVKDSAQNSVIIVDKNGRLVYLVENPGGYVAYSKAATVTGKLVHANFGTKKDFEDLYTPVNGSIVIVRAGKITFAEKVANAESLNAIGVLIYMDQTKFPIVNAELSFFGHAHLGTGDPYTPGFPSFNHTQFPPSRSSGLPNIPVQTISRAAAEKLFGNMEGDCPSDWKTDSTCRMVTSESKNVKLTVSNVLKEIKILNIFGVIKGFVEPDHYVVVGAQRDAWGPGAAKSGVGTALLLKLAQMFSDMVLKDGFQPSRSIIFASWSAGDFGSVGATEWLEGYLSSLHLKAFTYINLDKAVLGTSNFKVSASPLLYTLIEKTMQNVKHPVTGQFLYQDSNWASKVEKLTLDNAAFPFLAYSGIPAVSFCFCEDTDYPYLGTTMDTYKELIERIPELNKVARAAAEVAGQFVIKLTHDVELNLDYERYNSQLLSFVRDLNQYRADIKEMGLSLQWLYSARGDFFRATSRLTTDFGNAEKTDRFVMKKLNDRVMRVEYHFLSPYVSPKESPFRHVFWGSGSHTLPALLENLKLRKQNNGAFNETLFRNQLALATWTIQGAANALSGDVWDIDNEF
Compound,reduction of tumor volume [1] [%],"binding affinity and kinetics for hTfR1 (Biacore sensorgram), in words [2]","ka (1/Ms), measured association rate [2] [M⁻¹ s⁻¹]","kd (1/s), measured disassociation rate [2] [s⁻¹]",Kd [2] [M],binding to TfR1 [3],binding to TfR2 [4]
"Nc1ccn([C@@H]2O[C@H](CO)[C@@H](O)C2(F)F)c(=O)n1 [gemcitabine, 2′, 2′-difluoro 2′deoxycytidine, reference compound]",~70,–,–,–,–,–,–
"TR14 ST1-1: TR14 truncate, 40-nt, without 5′-GGG, chemically synthesized; SEQ ID NO:4 (GCUCAAUGCGUUCACGUUUAUUCACAUUUUUGAAUUGAGC; chemically synthesized, modifications not given here, further chemistry not given here)",–,neither TR14 ST1-1 nor TR14 ST1-2 were measurable,–,–,–,–,–
"TR14 ST1-2: TR14 truncate, 32-nt, 5′-AAUGCGUUCACGUUUAUUCACAUUUUUGAAUU-3′; SEQ ID NO:5 (listed as RNA, chemistry not given here)",–,neither TR14 ST1-1 nor TR14 ST1-2 were measurable,–,–,–,–,–
"TR14 S1: TR14 truncate, 46-nt, with 5′-GGG; SEQ ID NO:2 (GGGGCUCAAUGCGUUCACGUUUAUUCACAUUUUUGAAUUGAGCAUG; listed as RNA, chemistry not given here)",–,–,13000,1.89e-05,1.46e-09,–,–
"TR14 ST1-3: TR14 truncate, 22-nt, 5′-UUUAUUCACAUUUUUGAAUUGA-3′; SEQ ID NO:6 (listed as RNA, chemistry not given here)",–,–,6.3e+06,0.000138,2.2e-11,cross-activity on both TfR1 and TfR2,cross-activity on both TfR1 and TfR2
"TR14 S2: TR14 truncate, 43-nt, with 5′-GGG; SEQ ID NO:3 (GGGGCUCAAUGCGUUCACGUUUAUUCACAUUUUUGAAUUGAGC; listed as RNA, chemistry not given here)",–,improved kinetic constants,8.34e+08,0.000577,–,selective binding to TfR1,selective binding to TfR1
